How the values were obtained:
[1] = test system: clinical drug-sensitive and drug-resistant strains of M. tuberculosis; test: Whole-cell activity versus clinical M. tuberculosis strains; assay type: cell-based, Mycobacterium tuberculosis
[2] = test system: DG167-resistant M. tuberculosis; assay type: cell-based, Mycobacterium tuberculosis

Row | Structure (SMILES) | whole-cell activity versus clinical strains [1] | cross-resistance with DG167 [2]
1 | Cc1n[nH]c2ccc(NS(=O)(=O)CCCCF)cc12 [JSF-3285, 4-fluoro-N-(3-methyl-1H-indazol-5-yl)butane-1-sulfonamide] | comparable with its efficacy versus the H37Rv strain | cross-resistant with DG167
2 | CCCCS(=O)(=O)Nc1ccc2[nH]c(C#N)c(C)c2c1 [Compound 9, N-(2-cyano-3-methyl-1H-indol-5-yl)butane-1-sulfonamide] | maintained their in vitro potency | cross-resistant
3 | CCCCCS(=O)(=O)Nc1ccc2[nH]c(C#N)c(C)c2c1 [Compound 10, N-(2-cyano-3-methyl-1H-indol-5-yl)pentane-1-sulfonamide] | maintained their in vitro potency | cross-resistant
